# Experimental data: patent US20150328322A1, “DRUG DELIVERY VEHICLES” (priority 2012, published 2015)
# How the values were obtained:
# MLD capsid II [1] = molecular target: T1, MLD capsid II (Escherichia phage T7, UniProt P03728+P19726); assay: Diffusion-driven permeation of dyes into internal cavity of MLD capsid II; assay type: physicochemical; settings: entry through the gp8 portal
# T1 construct: These latter capsid shells are produced during DNA packaging
# Excerpt: MLD Capsid II. […] Thus, bis-ANS, ethidium, and presumably other similarly sized compounds enter MLD capsid II through the gp8 portal (see FIG. 1a).
# MLD capsid II [2] = molecular target: T1, MLD capsid II; assay: AUC-BD in a Nycodenz density gradient after pre-centrifugation incubation; assay type: physicochemical
# Method: By use of recent technical advances, both densities and their pressure dependence have been explored by use of analytical buoyant density equilibrium sedimentation (AUC-BD) performed with a Nycodenz density gradient and a fluorescence detector. The data were analyzed with the UltraScan-III software (Demeler et al., (2012) UltraScan-III, a comprehensive analysis software for analytical ultracentrifugation experiments. The University of Texas Health Science Center at San Antonio, Dept. of Biochemistry). […] The sources of the peak sharpness are small diffusion coefficient and uniform density of phage and phage capsids. […] Fluorescence detection provides picomolar sensitivity and several orders of magnitude of dynamic range. AUC-BD is also efficient in that (1) no gradient fractionation and analysis of separate fractions is needed, (2) sample concentrations in the picomolar range are used, over 2 orders of magnitude less than what is needed for other procedures of detection, (3) 14 samples can be simultaneously run and (4) pressure and temperature dependences are determined with one set of samples by progressively changing the speed and temperature of centrifugation.
# The details of the AUC-BD are the following. […] If the particle is uniform in density and its diffusion is low, then a sharp peak of fluorescence will form. […]
# T7 MLD capsid II = molecular target: T2, T7 MLD capsid II (Escherichia phage T7, UniProt P03728+P19726); settings: 25° C.; FIG. 5 adapted from Khan et al. 1992; cited from earlier work
# T2 construct: These latter capsid shells are produced during DNA packaging
# MHD capsid II = molecular target: T3, MHD capsid II (Escherichia phage T7, UniProt P19726); assay: Fluorescence (I) vs. time binding of bis-ANS to connector-free capsid; assay type: physicochemical; settings: capsid II particle without connector
# T3 construct: These latter capsid shells are produced during DNA packaging; made in house; host or cells: phage-infected E. coli (inferred)
# Excerpt: For measuring the rate of loading of a compound in MLD capsid II, an alternative to AUC-BD is usually needed for reasons of efficiency of time and cost. Total fluorescence (/) has been used to determine the rate of loading for bis-ANS, because bis-ANS undergoes fluorescence enhancement when it binds to hydrophobic areas of proteins, including several internal T7 proteins (gps8, gps15, gps16)—the T7 proteins bound were identified by ultraviolet light-induced, covalent cross-linking to bis-ANS after binding. The value of I vs. time at 25° C. is plotted in FIG. 5 (adapted from Khan et al., Biophys. J. 1992, 63:1286-1292), during incubation of bis-ANS with T7 MLD capsid II and also the mature phage T7 and a T7 deletion mutant, C5-LG3. Binding to the exterior of the capsid was so rapid that it was complete before the first measurement. […] Thus, the loading rate is simply observed by measuring I vs. time and subtracting the initial signal. […] MLD capsid II-bound bis-ANS fluorescence is quenched by incubation with ethidium cation.
# MLD capsid II [3] = molecular target: T1, MLD capsid II; assay: Buoyant density after incubation with sodium iothalamate; assay type: physicochemical; settings: 25° C.; loads, but very slowly
# Excerpt: Assays for Loading. To assay for diffusion-driven loading of a compound in the cavity of MLD capsid II, the most direct method is to perform buoyant density equilibrium centrifugation in a non-ionic density gradient of either Metrizamide (mw=789) or the closely related compound, Nycodenz (mw=821). If a compound enters MLD capsid II, the density changes after loading. Most dyes and drugs would, if loaded, cause the density of MLD capsid II to increase. The reason is that most dyes and drugs are denser than water and a loaded dye or drug molecule replaces internal MLD capsid II water. The exceptionally high hydration of MLD capsid II causes the density of MLD capsid II to be extremely low, typically between 1.08 and 1.12 g/ml, decreasing with increasing centrifugation speed, i.e., with increasing pressure (unpublished observations of the laboratories of Borries Demeler and Philip Serwer).
# As the temperature decreases, the loading rate is expected to decrease, eventually to zero at a critical temperature. The critical temperature is expected to decrease as the molecular weight of the compound loaded decreases. The borderline for loading MLD capsid II at 25° C. is somewhat higher than 612, based on the fact that iothalamate anion (mw =612) loads, but very slowly (>19 hours), as determined by the buoyant density after incubation with sodium iothalamate. […]
structure (smiles),measurement,setting,value
CC(=O)Nc1c(I)c(C(=O)N[C@H]2C(O)O[C@H](CO)[C@@H](O)[C@@H]2O)c(I)c(N(C)C(C)=O)c1I (some centres unmarked) [Metrizamide],diffusion into the internal cavity of MLD capsid II,MLD capsid II [1],never been observed to detectably diffuse into MLD capsid II
CC(=O)N(CC(O)CO)c1c(I)c(C(=O)NCC(O)CO)c(I)c(C(=O)NCC(O)CO)c1I (centres unmarked) [Nycodenz],entry into MLD capsid II,"MLD capsid II [2]; pre-centrifugation incubation at 61° C. and 68° C., conversion to high-density particle, shell intact",does enter
same,entry into MLD capsid II,MLD capsid II [2]; pre-centrifugation incubation at temperatures as high as 54° C.,does not enter MLD capsid II
"O=S(=O)(O)c1cccc2c(-c3ccc(Nc4ccccc4)c4c(S(=O)(=O)O)cccc34)ccc(Nc3ccccc3)c12 [bis-ANS, 4,4′-dianilino-1,1′-binaphthyl-5,5′-disulfonic acid]",time of bis-ANS binding to the interior (loading),T7 MLD capsid II,several hours
same,bis-ANS binding kinetics,MHD capsid II,Only rapid (effectively instantaneous) binding
same,diffusion into the internal cavity of MLD capsid II,MLD capsid II [1],diffuse into the internal cavity of MLD capsid II (over hours)
CC[n+]1c(-c2ccccc2)c2cc(N)ccc2c2ccc(N)cc21 [ethidium],diffusion into the internal cavity of MLD capsid II,MLD capsid II [1],diffuse into the internal cavity of MLD capsid II (over hours)
CNC(=O)c1c(I)c(NC(C)=O)c(I)c(C(=O)O)c1I [iothalamate],loading time,MLD capsid II [3],> 19 h
